Measurements published in publication PMC4377892, “Gastroprotective Efficacy and Safety Evaluation of Scoparone Derivatives on Experimentally Induced Gastric Lesions in Rodents” (Nutrients, 2015).
Values belong to the compound of their own block, whether it stands above or below them.

Columns and labels:
CYP3A4 = CYP3A4 (Homo sapiens, UniProt P08684); test: in vitro; conditions: recombinant enzyme
Protocol: (§1) The inhibition assays for human cytochrome P450 (CYP) enzyme activities were performed in multiwall plates using CYP2C9 and CYP3A4 screening kits (Invitrogen Co., Carlsbad, CA, USA) according to the manufacturer’s instruction. The test compounds Ketoconazole (a positive inhibition control for CYP3A4) or Sulfaphenazole (a positive inhibition control for CYP2C9) were mixed with each master pre-mix comprising CYP2C9 or CYP3A4 BACULOSOMES® reagent and the regeneration system, which contained glucose-6-phosphate and glucose-6-phosphate dehydrogenase. The mixture was incubated at room temperature for 20 min. Following incubation, a CYP enzyme-specific substrate (Vivid BOMCC) and NADP^+ were added and the mixture was incubated at room temperature for 30 min. The reaction was stopped by the addition of a Stop Reagent (CYP450 isozyme specific inhibitors). CYP activity was evaluated by measuring the fluorescence of the fluorescent metabolite generated from each CYP enzyme-specific substrate. The fluorescence was measured using a fluorescent plate reader at 409 nm (excitation) and 460 nm (emission). All experiments were performed in duplicate, and the results are expressed as percent inhibition.

CYP2C9 = CYP2C9 (Homo sapiens, UniProt P11712); test: in vitro
Protocol: as §1

ICR mice = test: Acute oral toxicity in mice; type: in vivo; conditions: for Mortality / Relative Organ Weight, Heart / Relative Organ Weight, Kidney / Relative Organ Weight, Liver / Relative Organ Weight, Lung / Relative Organ Weight, Spleen / alteration in body weight vs vehicle control (in words): single oral 1000 mg/kg, 14 days; for Mortality: deaths/animals; for Relative Organ Weight, Heart / Relative Organ Weight, Kidney / Relative Organ Weight, Liver / Relative Organ Weight, Lung / Relative Organ Weight, Spleen: mean ± SEM n = 10; for LD50: oral, Probit method; for alteration in body weight vs vehicle control (in words): male and female ICR mice; for acute toxicity (in words): single oral administration 1000 mg/kg body weight, ICR mice
Protocol: Acute toxicity studies were performed both in male and female ICR mice as described previously. Vehicle control and test compound treated groups consisted of 10 animals each. Mice were acclimatized for 7 days before experimentation. Before dosing with test compounds, animals were fasted for 24 h with access to adequate drinking water in cases with wire mesh bottoms, to prevent coprophagy. The treated group received test compounds, and the control group received saline by gavage at a dose of 1000 mg/kg body weight. […] The mortality, body measurements, and behavior were assessed and recorded daily for 14 days after treatment. The macroscopic analyses and weight of vital organs, such as the liver, kidney, spleen, lung, and heart were compared between the animals treated with test compounds and vehicle.

[1] = system: HCl/ethanol-induced gastric ulcers; test: HCl/ethanol-induced gastritis in rats; type: in vivo, Sprague-Dawley (S.D.) rats; conditions: HCl/ethanol-induced GU; for ED50: Rattus norvegicus, oral, dose-response, rats, read-out: ED50 (50% protection against GU)
Protocol: The male S.D. rats were fasted for 24 h prior to oral dosing with the normal saline (vehicle), rebamipide (a positive control), or test compounds (Figure 1) at a range of doses, which are described in the results. One hour after the treatments, all animals orally received 0.5 mL of a mixture of 0.15 M HCl and 60% ethanol solution. Animals were sacrificed by cervical dislocation 3 h after the administration of HCl/ethanol solution, the stomach was removed and fixed in 4% formalin solution for 1 h, opened along the greater curvature, and photographed using a camera attached to a dissection microscope. Total area (mm^2) of mucosal erosive lesion was measured using Photoshop CS4 Extended (Adobe, San Jose, CA, USA) software. The percentage of ulcer inhibition by test compounds was calculated by the following formula: % protection of ulceration = ((%Uarea vehicle treated ulcer control–%Uarea compound treated)/%Uarea vehicle treated ulcer control) × 100(1) where %Uarea is the percent ulcer area of the total gastric mucosa area. ED50 values (50% protection against GU) were calculated from the dose-response curves of logarithmic plots of each test compound.

[2] = system: indomethacin-induced gastric ulcers; test: Indomethacin-induced gastritis in rats; type: in vivo, Sprague-Dawley (S.D.) rats; conditions: for gastroprotective activity (in words): oral 40 mg/kg, indomethacin-induced GU, rats; for GU reversal: stated for both HCl/ethanol- and indomethacin-induced GU
Protocol: The male S.D. rats were fasted for 24 h prior to oral dosing with normal saline, rebamipide, or test compounds at a dose of 40 mg/kg body weight. One hour after treatment, all animals orally received 0.5 mL indomethacin solution (80 mg/kg body weight, suspended in 5% sodium bicarbonate). Animals were sacrificed by cervical dislocation 6 h after the administration of indomethacin solution, the stomach was removed and fixed in 2% formalin solution for 30 min, opened along the greater curvature, and photographed using a camera attached to a dissection microscope. Total area (mm^2) of mucosal erosive lesion was measured and the % protection was calculated as described above.

adherent gastric mucus = test: Measurement of adherent gastric mucus (alcian blue) in HCl/ethanol-treated rats; type: in vivo, Sprague-Dawley (S.D.) rats; conditions: 20 mg/kg body weight oral, 1 h before HCl/ethanol, mean ± SEM n = 6
Protocol: The male S.D. rats were fasted for 24 h prior to oral dosing with normal saline, rebamipide, or test compounds at a dose of 20 mg/kg body weight. One hour after the treatments, all animals orally received 0.5 mL of a mixture of 0.15 M HCl and 60% ethanol solution. Animals were sacrificed by cervical dislocation 3 h after the administration of HCl/ethanol solution, the stomach was removed, and parts of the stomach mucosa were rinsed with ice-cold 0.25 M sucrose. Measurement of adherent gastric mucosal mucus was assayed using alcian blue, a dye which stains acid mucosubstances, as previously described. In brief, a 100 mm^2 portion of the glandular region of the stomach was excised with a scalpel, and soaked in 0.1% alcian blue dissolved in 0.16 M of sucrose buffered with 0.05 M sodium acetate (pH 5.8) for 2 h. The unbound dye was removed using two successive washes with 0.25 M sucrose. The dye complex with mucus was extracted using 30% docusate sodium salt for 2 h. After centrifugation at 2600× g for 10 min, the optical density of the alcian blue solution was measured at 620 nm and calculated using the calibration curve. The adherent gastric mucosal mucus was expressed as the amount of the alcian blue (μg/g tissue).

[3] = single oral dose 40 mg/kg body weight, S.D. rats

Chain of CYP2C9 (P11712 whole entry): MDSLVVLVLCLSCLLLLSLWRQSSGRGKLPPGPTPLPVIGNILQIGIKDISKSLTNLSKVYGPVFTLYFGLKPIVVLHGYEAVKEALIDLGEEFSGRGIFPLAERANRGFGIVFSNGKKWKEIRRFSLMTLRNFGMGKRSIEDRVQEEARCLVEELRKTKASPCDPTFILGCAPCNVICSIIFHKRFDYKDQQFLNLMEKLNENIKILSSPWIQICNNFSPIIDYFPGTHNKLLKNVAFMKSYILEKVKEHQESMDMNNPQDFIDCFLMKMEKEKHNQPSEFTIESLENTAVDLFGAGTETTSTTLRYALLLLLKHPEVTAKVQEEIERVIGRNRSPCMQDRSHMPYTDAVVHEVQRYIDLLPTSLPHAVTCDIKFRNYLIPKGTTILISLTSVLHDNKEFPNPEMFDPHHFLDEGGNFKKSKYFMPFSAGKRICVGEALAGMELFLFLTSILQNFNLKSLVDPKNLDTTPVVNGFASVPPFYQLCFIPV
Chain of CYP3A4 (P08684 whole entry): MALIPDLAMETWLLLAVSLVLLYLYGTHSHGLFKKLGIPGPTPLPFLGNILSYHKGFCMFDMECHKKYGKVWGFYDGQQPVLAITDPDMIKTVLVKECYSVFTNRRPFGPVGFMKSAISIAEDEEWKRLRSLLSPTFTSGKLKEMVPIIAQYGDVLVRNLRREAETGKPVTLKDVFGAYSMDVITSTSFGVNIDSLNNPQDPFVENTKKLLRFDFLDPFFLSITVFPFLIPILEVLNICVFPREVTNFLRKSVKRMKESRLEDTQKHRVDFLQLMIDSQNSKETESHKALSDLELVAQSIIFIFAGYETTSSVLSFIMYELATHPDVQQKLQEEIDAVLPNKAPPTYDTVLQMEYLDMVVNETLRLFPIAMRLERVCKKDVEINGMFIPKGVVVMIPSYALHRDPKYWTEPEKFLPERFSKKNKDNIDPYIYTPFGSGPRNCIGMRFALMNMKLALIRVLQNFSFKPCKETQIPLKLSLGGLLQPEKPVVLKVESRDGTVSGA

Structure (SMILES): COc1cc2ccc(=O)oc2c(OC)c1OC [Compound 3, 6,7,8-trimethoxycoumarin]
inhibition at 30 min, 10 µM (CYP3A4): 15.8%
inhibition at 30 min, 10 µM (CYP2C9; recombinant enzyme): 0%
Mortality (ICR mice; female mice): 0/10
Relative Organ Weight, Heart (ICR mice; female mice): 0.54 ± 0.05 % body weight
Relative Organ Weight, Kidney (ICR mice; female mice): 1.34 ± 0.05 % body weight
Relative Organ Weight, Liver (ICR mice; female mice): 6.86 ± 0.78 % body weight
Relative Organ Weight, Lung (ICR mice; female mice): 0.79 ± 0.06 % body weight
Relative Organ Weight, Spleen (ICR mice; female mice): 0.48 ± 0.10 % body weight
Mortality (ICR mice; male mice): 0/10
Relative Organ Weight, Heart (ICR mice; male mice): 0.50 ± 0.02 % body weight
Relative Organ Weight, Kidney (ICR mice; male mice): 1.58 ± 0.06 % body weight
Relative Organ Weight, Liver (ICR mice; male mice): 4.92 ± 0.24 % body weight
Relative Organ Weight, Lung (ICR mice; male mice): 0.69 ± 0.06 % body weight
Relative Organ Weight, Spleen (ICR mice; male mice): 0.40 ± 0.07 % body weight
LD50 (ICR mice; female ICR mice): 3500 mg/kg body weight
LD50 (ICR mice; male ICR mice): 2111 mg/kg body weight
alteration in body weight vs vehicle control (in words) (ICR mice): no significant alteration
acute toxicity (in words) (ICR mice): no toxicity
ED50 [1]: 2.93 mg/kg
protection rate (gastric lesion) [1, 3]: 95.8%
gastroprotective activity (in words) [2]: effectively inhibited
GU reversal [2]: over 90%
Adherent Mucus (adherent gastric mucus): 1876 ± 51 μg alcian blue/g tissue

Structure (SMILES): CC(=O)N1CCN(c2ccc(OCC3COC(Cn4ccnc4)(c4ccc(Cl)cc4Cl)O3)cc2)CC1 (stereo not shown) [Ketoconazole, reference compound]
inhibition at 30 min, 20 µM (CYP3A4): 97.5%
inhibition at 30 min, 20 µM (CYP2C9; recombinant enzyme): 0%

Structure (SMILES): O=C(NC(Cc1cc(=O)[nH]c2ccccc12)C(=O)O)c1ccc(Cl)cc1 (stereo not shown) [Rebamipide, reference compound]
ED50 [1]: 9.53 mg/kg
protection rate (gastric lesion) [1, 3]: 57.8%
Adherent Mucus (adherent gastric mucus): 1584 ± 80 μg alcian blue/g tissue

Structure (SMILES): Nc1ccc(S(=O)(=O)Nc2ccnn2-c2ccccc2)cc1 [Sulfaphenazole, reference compound]
inhibition at 30 min, 20 µM (CYP3A4): 0%
inhibition at 30 min, 20 µM (CYP2C9; recombinant enzyme): 93.4%

Structure (SMILES): COc1cc2oc(=O)ccc2c(OC)c1OC [Compound 2, 5,6,7-Trimethoxycoumarin]
inhibition at 30 min, 10 µM (CYP3A4): 19.1%
inhibition at 30 min, 10 µM (CYP2C9; recombinant CYP2C9 BACULOSOMES, probe Vivid BOMCC): 0%
Mortality (ICR mice; female mice): 0/10
Relative Organ Weight, Heart (ICR mice; female mice): 0.47 ± 0.05 % body weight
Relative Organ Weight, Kidney (ICR mice; female mice): 1.22 ± 0.09 % body weight
Relative Organ Weight, Liver (ICR mice; female mice): 4.21 ± 0.64 % body weight
Relative Organ Weight, Lung (ICR mice; female mice): 0.69 ± 0.07 % body weight
Relative Organ Weight, Spleen (ICR mice; female mice): 0.45 ± 0.09 % body weight
Mortality (ICR mice; male mice): 0/10
Relative Organ Weight, Heart (ICR mice; male mice): 0.46 ± 0.07 % body weight
Relative Organ Weight, Kidney (ICR mice; male mice): 1.56 ± 0.05 % body weight
Relative Organ Weight, Liver (ICR mice; male mice): 5.84 ± 0.23 % body weight
Relative Organ Weight, Lung (ICR mice; male mice): 0.68 ± 0.05 % body weight
Relative Organ Weight, Spleen (ICR mice; male mice): 0.36 ± 0.08 % body weight
LD50 (ICR mice; female ICR mice): 3857 mg/kg body weight
LD50 (ICR mice; male ICR mice): 3812 mg/kg body weight
alteration in body weight vs vehicle control (in words) (ICR mice): no significant alteration
acute toxicity (in words) (ICR mice): no toxicity
ED50 [1]: 3.94 mg/kg
protection rate (gastric lesion) [1, 3]: 90.0%
gastroprotective activity (in words) [2]: effectively inhibited
GU reversal [2]: over 90%
Adherent Mucus (adherent gastric mucus): 1424 ± 83 μg alcian blue/g tissue

Structure (SMILES): COc1cc2ccc(=O)oc2c2c1OC(OC)O2 (stereo not shown) [Compound 5, 6-Methoxy-7,8-(1-methoxy)methylenedioxycoumarin]
melting point: 202 to 203 °C

Structure (SMILES): COc1cc2ccc(=O)oc2c2c1OCO2 [Compound 4, 6-methoxy-7,8-methylenedioxycoumarin]
melting point: 220 to 221 °C
protection rate (gastric lesion) [1, 3]: 93.1%
gastroprotective activity (in words) [2]: equipotent gastroprotective activity that of rebamipide

More lines, main results first:

melting point: 205 to 206 °C
Structure (SMILES): COC1Oc2cc3ccc(=O)oc3cc2O1 (stereo not shown) [Compound 7, 6,7-(1-Methoxy)methylenedioxycoumarin]

inhibition at 30 min, 10 µM (CYP3A4): 32.7%
inhibition at 30 min, 10 µM (CYP2C9; recombinant enzyme): 0%
Structure (SMILES): COc1cc2ccc(=O)oc2cc1OC [Compound 1, 6,7-dimethoxycoumarin]
ED50 [1]: 4.21 mg/kg
gastroprotective activity (in words) [1, 3]: significantly protected
gastroprotective activity (in words) [2]: effectively inhibited

melting point: 230 to 231 °C
Structure (SMILES): O=c1ccc2cc3c(cc2o1)OCO3 [Compound 6, 6,7-Methylenedioxycomarin]
